Reference: US8785619B1, “Nucleosides and oligonucleotides for studies on reversal of cytotoxic and mutagenic damage of DNA potential diagnostics tools” (ChemGenes Corporation, priority 2003, dated 2014)

Assays:
[1] = Kinetic studies of N6 protecting group deprotection in ammonia: migration of methyl group from N1 to N6 (Dimroth rearrangement), by TLC and HPLC; assay type: physicochemical
Description: Prior to utilize the N-6 chloroacetyl protected N-1 methyl-2′-deoxyadenosine 3′-cyanoethyl phosphoramidite, we carried out a number of kinetic studies for the deprotection of chloroacetyl group and determination of presence of any N-6 methyl
Our subsequent studies to develop a ideal group which would be cleanly removed under aq ammonia deprotection condition and would have negligible amount of Dimroth rearrangement product as bye product.
FIG. 7. 5′-DMT-N^1-Methyl-N^6-FMOC-2′-deoxyadenosine-Kinetic Test for FMOC. Deprotection (20% methanolic ammonia at 37 C. Note: The N-6 methyl migration product is seen 2.27% after complete deprotection.
(required to knock off Phenoxy acetyl from N^6 position). To minimize this migration, we introduced N-FMOC group in place of N-PAC which reduced 20% methanolic ammonia hydrolysis time to only 4 hours at 37° C. but even in 4 hours, approx. 2.5% migration took place. This migration of methyl group from N-^1 to N^6 position was confirmed by TLC & HPLC.

[2] = cited from earlier work
[3] = 2M methanolic ammonia at room temperature

## COc1ccc(C(OCC2OC(n3cnc4c(=NC(=O)OCC5c6ccccc6-c6ccccc65)n(C)cnc43)CC2OP(OCCC#N)N(C(C)C)C(C)C)(c2ccccc2)c2ccc(OC)cc2)cc1 (stereo not drawn) [5′-DMT-N^1-Methyl-N^6-FMOC-2′-deoxyadenosine-3′-cyanoethyl, n,n-diisopropyl phosphoramidite]
[1]; aq ammonia deprotection
  presence of N-6 methyl-2′-deoxy adenosine: less than 1%

## COc1ccc(C(OC[C@H]2O[C@@H](n3cnc4c(=NC(=O)OCC5c6ccccc6-c6ccccc65)n(C)cnc43)C[C@@H]2O)(c2ccccc2)c2ccc(OC)cc2)cc1 [5′-DMT-N^1-Methyl-N^6-FMOC-2′-deoxyadenosine]
[1]; FMOC deprotection, 20% methanolic ammonia at 37 C (FIG. 7)
  N-6 methyl migration product after complete deprotection: 2.27%

## Cn1cnc2c(ncn2[C@@H]2O[C@H](CO)[C@@H](O)[C@H]2O)c1=N [N^1-methyl adenosine]
[2]; [3]
  time stable: 3 days
  time to total conversion into N6-methyl adenosine: 6 days

## Cn1cnc2c(ncn2[C@H]2C[C@H](O)[C@@H](CO)O2)c1=N [N^1-methyl-2′-deoxyadenosine]
[2]; 25% aq. ammonia
  half life of conversion into N6-methyl-2′-deoxyadenosine: 36 h

## N-6 chloroacetyl protected N-1 methyl-2′-deoxyadenosine 3′-cyanoethyl phosphoramidite
[1]; deprotection of chloroacetyl group
  N-6 methyl-2′-deoxy adenosine formation (Dimroth rearrangement product): 8-10%
